Test results reported in ChEMBL document CHEMBL1201862, “PubChem BioAssay data set” (2004).
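Values below derive from 48-hour exposures of cells grown in 96-well plates, with endpoints linearly interpolated between the two concentrations bracketing the appropriate inhibition level. GI50: concentration for 50% inhibition of growth.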 Calls of active or inactive are those of the source. Rule as the data show it: active = GI50 up to about 1.1 µM and inactive = higher. Where a SMILES comes first, the peptide text is derived from it. The star is where a group is joined. Fmoc = O=C(OCC1c2ccccc2-c2ccccc21)*; OBn = c1ccc(CO*)cc1; tBu = CC(C)(C)*

Tests used:
Assay in all cases: growth of human tumour cells (NCI), 48 h
UACC-62 = system: UACC-62
UO-31 = system: UO-31
OVCAR-8 = system: OVCAR-8
NCI-H23 = system: NCI-H23
HL-60 = system: HL-60
HCT-15 = system: HCT-15
A549 = system: A549
U-251 = system: U-251
SK-OV-3 = system: SK-OV-3
SF-268 = system: SF-268
A498 = system: A498
SF-295 = system: SF-295
SF-539 = system: SF-539
OVCAR-3 = system: OVCAR-3
SNB-78 = system: SNB-78
ACHN = system: ACHN
HCC 2998 = system: HCC 2998
HOP-92 = system: HOP-92
Hs-578T = system: Hs-578T
PC-3 = system: PC-3

Row | SMILES | GI50 (UACC-62) | GI50 (UO-31) | GI50 (OVCAR-8) | GI50 (NCI-H23) | GI50 (HL-60) | GI50 (HCT-15) [µM] | GI50 (A549) | GI50 (U-251) | GI50 (SK-OV-3) | GI50 (SF-268) | GI50 (A498) | GI50 (SF-295) | GI50 (SF-539) | GI50 (OVCAR-3) | GI50 (SNB-78) | GI50 (ACHN) | GI50 (HCC 2998) | GI50 (HOP-92) | GI50 (Hs-578T) | GI50 (PC-3)
1 | O=C1C=CC=CC2CC=C[C@@H](O)C12 (some centres undefined) | 17.8 µM (inactive) | 16.4 µM (inactive) | 29.6 µM (inactive) | > 10 µM (inactive) | 15.5 µM (inactive) | 17.3 | 26.2 µM (inactive) | > 10 µM (inactive) | 69.7 µM (inactive) | 21.3 µM (inactive) | 15.9 µM (inactive) | 20.7 µM (inactive) | 24.5 µM (inactive) | > 10 µM (inactive) | 32.4 µM (inactive) | 17.3 µM (inactive) | – | – | – | –
2 | COc1cccc2c1[C@H]1OC(=O)NC1CCCCC2 (some centres undefined) | > 100 µM (inactive) | > 100 µM (inactive) | > 100 µM (inactive) | > 100 µM (inactive) | > 100 µM (inactive) | > 100 | > 100 µM (inactive) | > 100 µM (inactive) | > 100 µM (inactive) | > 100 µM (inactive) | > 100 µM (inactive) | > 100 µM (inactive) | > 100 µM (inactive) | > 100 µM (inactive) | > 100 µM (inactive) | > 100 µM (inactive) | > 100 µM (inactive) | – | – | –
3 | O=C1CCN2C(=O)CCN12 | > 100 µM (inactive) | > 100 µM (inactive) | > 100 µM (inactive) | > 100 µM (inactive) | > 100 µM (inactive) | – | > 100 µM (inactive) | > 100 µM (inactive) | > 100 µM (inactive) | > 100 µM (inactive) | > 100 µM (inactive) | > 100 µM (inactive) | – | > 100 µM (inactive) | > 100 µM (inactive) | > 100 µM (inactive) | – | > 100 µM (inactive) | – | –
4 | CCN(CC)c1ccc(/N=C2/C=CC(=O)c3ncccc32)c(C)c1 | 5.06 µM (inactive) | 16.6 µM (inactive) | 3.42 µM (inactive) | 5.94 µM (inactive) | 2.19 µM (inactive) | 3.08 | 11.2 µM (inactive) | 6.92 µM (inactive) | 20 µM (inactive) | 8.32 µM (inactive) | – | 10.7 µM (inactive) | 5.56 µM (inactive) | 3.33 µM (inactive) | 9.55 µM (inactive) | 3.92 µM (inactive) | 11.7 µM (inactive) | 6.75 µM (inactive) | – | –
5 | C/C(CCN(C)C)=N/O | 1.15 µM (inactive) | 16 µM (inactive) | 0.826 µM (active) | 8.32 µM (inactive) | 0.281 µM (active) | 11.7 | 1.6 µM (inactive) | 6.59 µM (inactive) | 17.9 µM (inactive) | 1.49 µM (inactive) | – | 26.8 µM (inactive) | 1.14 µM (inactive) | 1.29 µM (inactive) | 15.8 µM (inactive) | 0.918 µM (active) | 1.16 µM (inactive) | 9.44 µM (inactive) | – | –
6 | O=C(Nc1c(O)[nH]c(=S)[nH]c1=O)c1ccccc1 | > 100 µM (inactive) | > 100 µM (inactive) | > 100 µM (inactive) | > 100 µM (inactive) | > 100 µM (inactive) | > 100 | > 100 µM (inactive) | > 100 µM (inactive) | > 100 µM (inactive) | > 100 µM (inactive) | > 100 µM (inactive) | > 100 µM (inactive) | > 100 µM (inactive) | > 100 µM (inactive) | > 100 µM (inactive) | > 100 µM (inactive) | – | > 100 µM (inactive) | – | –
7 | COc1cccc(C2CC(=O)c3cccn32)c1 (centres undefined) | > 100 µM (inactive) | 29.4 µM (inactive) | > 100 µM (inactive) | > 100 µM (inactive) | 32.4 µM (inactive) | > 100 | 94.6 µM (inactive) | > 100 µM (inactive) | > 100 µM (inactive) | 69.3 µM (inactive) | > 100 µM (inactive) | > 100 µM (inactive) | > 100 µM (inactive) | > 100 µM (inactive) | – | > 100 µM (inactive) | > 100 µM (inactive) | > 100 µM (inactive) | 23.4 µM (inactive) | 73.3 µM (inactive)
8 | CN(C(=O)C12C3C4C1C1C2C3C41C(O)C(C)(C)C)C(C)(C)C (centres undefined) | > 100 µM (inactive) | > 100 µM (inactive) | > 100 µM (inactive) | > 100 µM (inactive) | > 100 µM (inactive) | – | > 100 µM (inactive) | > 100 µM (inactive) | > 100 µM (inactive) | > 100 µM (inactive) | > 100 µM (inactive) | > 100 µM (inactive) | > 100 µM (inactive) | > 100 µM (inactive) | > 100 µM (inactive) | > 100 µM (inactive) | > 100 µM (inactive) | – | – | –
9 | CCC(O)CC1OC2(CCC1C)CC1OC(=O)/C=C\C(C)(O)C(O)C(C)C(O)C(OC3CC(OC)C(O)C(C)O3)C(O)C(C)(O)CCC/C=C/C3CC(C)COC3(O)CC(O2)C1C (centres undefined) | 9.04 µM (inactive) | 11.2 µM (inactive) | < 0.0111 µM (active) | < 0.0176 µM (active) | < 0.0199 µM (active) | 9.62 | < 0.0214 µM (active) | < 0.01 µM (active) | 26.6 µM (inactive) | 17.8 µM (inactive) | 3.82 µM (inactive) | < 0.016 µM (active) | 17.3 µM (inactive) | 0.585 µM (active) | – | 7.24 µM (inactive) | 15.7 µM (inactive) | 25.6 µM (inactive) | 12.1 µM (inactive) | < 0.0251 µM (active)
10 | CC(C)Oc1c(-c2ccc(F)cc2)c(O)c2c3c1oc(=O)n3C=CC2C (centres undefined) | 14.6 µM (inactive) | 12.2 µM (inactive) | 15.8 µM (inactive) | 11.8 µM (inactive) | 10.4 µM (inactive) | 14.9 | 13 µM (inactive) | 15.5 µM (inactive) | 24 µM (inactive) | 17.3 µM (inactive) | 15 µM (inactive) | 15.2 µM (inactive) | 13.4 µM (inactive) | 14.4 µM (inactive) | – | 14.5 µM (inactive) | 13.4 µM (inactive) | 13.9 µM (inactive) | 20.2 µM (inactive) | 7.05 µM (inactive)
11 | O=C(c1ccc(-c2ccccc2)cc1)N(Cc1cccnc1)C(=S)N(Cc1cccnc1)C(=O)c1ccc(-c2ccccc2)cc1 | > 100 µM (inactive) | 51.9 µM (inactive) | > 100 µM (inactive) | > 100 µM (inactive) | 24.5 µM (inactive) | 87.3 | > 100 µM (inactive) | > 100 µM (inactive) | > 100 µM (inactive) | > 100 µM (inactive) | > 100 µM (inactive) | > 100 µM (inactive) | > 100 µM (inactive) | > 100 µM (inactive) | – | > 100 µM (inactive) | > 100 µM (inactive) | 8.95 µM (inactive) | > 100 µM (inactive) | > 100 µM (inactive)
12 | CC[C@@H]1CC[C@@H]2[C@H](CC[C@]3(C)[C@@H](OC(C)=O)CC[C@@H]23)[C@H]1C(=O)OC | 20.1 µM (inactive) | 33.7 µM (inactive) | 27.9 µM (inactive) | 24.4 µM (inactive) | 13.3 µM (inactive) | 22 | 24.4 µM (inactive) | 21.2 µM (inactive) | > 100 µM (inactive) | 23.4 µM (inactive) | > 100 µM (inactive) | 21 µM (inactive) | 19.2 µM (inactive) | 19.4 µM (inactive) | – | 40 µM (inactive) | 97.9 µM (inactive) | 13.4 µM (inactive) | 46.1 µM (inactive) | 23.7 µM (inactive)
13 | Cc1cn(C2CC(N=[N+]=[N-])C(COP(=O)(O)OCC3OC(n4cc(F)c(=O)[nH]c4=O)CC3O)O2)c(=O)[nH]c1=O (centres undefined) | 8.34 µM (inactive) | 0.465 µM (active) | 5.94 µM (inactive) | 4.05 µM (inactive) | 9.1 µM (inactive) | > 100 | 0.368 µM (active) | > 25.5 µM (inactive) | > 100 µM (inactive) | 0.442 µM (active) | 3.37 µM (inactive) | 0.337 µM (active) | 0.0438 µM (active) | > 100 µM (inactive) | – | 0.63 µM (active) | > 100 µM (inactive) | 1.11 µM (active) | > 100 µM (inactive) | > 100 µM (inactive)
14 | CCOC(=O)CCn1cnc(N)n1 | > 100 µM (inactive) | > 100 µM (inactive) | > 100 µM (inactive) | > 100 µM (inactive) | > 100 µM (inactive) | > 100 | > 100 µM (inactive) | > 100 µM (inactive) | > 100 µM (inactive) | – | – | > 100 µM (inactive) | > 100 µM (inactive) | > 100 µM (inactive) | > 100 µM (inactive) | > 100 µM (inactive) | > 100 µM (inactive) | > 100 µM (inactive) | – | –
15 | O=C(O)c1ccccc1NS(=O)(=O)c1ccc([N+](=O)[O-])cc1 | > 100 µM (inactive) | > 100 µM (inactive) | > 100 µM (inactive) | > 100 µM (inactive) | – | > 100 | > 100 µM (inactive) | > 100 µM (inactive) | > 100 µM (inactive) | > 100 µM (inactive) | – | > 100 µM (inactive) | > 100 µM (inactive) | > 100 µM (inactive) | > 100 µM (inactive) | > 100 µM (inactive) | > 100 µM (inactive) | – | – | –
16 | CC(OC(C)(C)C)C(NC(=O)OCC1c2ccccc2-c2ccccc21)C(=O)NC(Cc1ccccc1)C(=O)OCc1ccccc1 (centres undefined) (Fmoc-Thr(tBu)-Phe-OBn; configuration not given here) | > 100 µM (inactive) | > 46.6 µM (inactive) | > 100 µM (inactive) | > 100 µM (inactive) | > 100 µM (inactive) | > 100 | > 100 µM (inactive) | > 100 µM (inactive) | > 100 µM (inactive) | > 100 µM (inactive) | > 100 µM (inactive) | > 100 µM (inactive) | > 100 µM (inactive) | > 100 µM (inactive) | – | > 100 µM (inactive) | > 100 µM (inactive) | > 21.2 µM (inactive) | > 100 µM (inactive) | > 100 µM (inactive)
